For 28 compounds, IC50 results are on record in patent US10214492B2, “Heterocyclic inhibitors of MCT4” (Vettore, LLC, priority 2016, dated 2019).

One test addresses MCT4 (Homo sapiens (Human), UniProt O15427). The experiment in a line: Assay 3: MCT4-mediated lactate transport in MDA-MB-231 breast cancer cells. Type of test: cell-based. As to conditions: MDA-MB-231 cells; lactate transport. The procedure: (§1) 10 μL of a 30 mM DMSO stock of BCECF-AM ester (Life Technologies) is added and the cells are incubated at 37° C. for 5 min. The cells are pelleted (300 g, 5 min), washed once with 1 mL Tyrode's Solution, pH 7.4, re-pelleted (300 g, 5 min), and resuspended in 1 mL Tyrode's Solution, pH 7.4.
MCT4 activity may be assessed by monitoring the intracellular pH change that accompanies lactate/proton symport, using the pH-sensitive fluorescent dye 2′,7′-bis-(carboxyethyl)-5(6)-carboxyfluorescein (BCECF), in a manner similar to that previously reported for MCT1 and MCT4. The following is an exemplary procedure for assaying MCT4 activity of the compounds of Formula (I).

For a further test, the target named is MCT1 (Homo sapiens (Human), UniProt P53985). The experiment in a line: Assay 4: MCT1-mediated lactate transport in BT20 breast cancer cells. Type of test: cell-based. Conditions: Table 27. The procedure:
as §1
Assay 4: MCT1-Mediated Lactate Transport in BT20 Breast Cancer Cells.
Preparation of BCECF loaded cells are as described for Assay 1. Lactate transport assay is as described for Assay 1, except 10 mM L-lactate (rather than 50 mM) is added.

Where only a bound is given, the exact number is not on record here.

Chain of MCT1 (P53985 whole entry): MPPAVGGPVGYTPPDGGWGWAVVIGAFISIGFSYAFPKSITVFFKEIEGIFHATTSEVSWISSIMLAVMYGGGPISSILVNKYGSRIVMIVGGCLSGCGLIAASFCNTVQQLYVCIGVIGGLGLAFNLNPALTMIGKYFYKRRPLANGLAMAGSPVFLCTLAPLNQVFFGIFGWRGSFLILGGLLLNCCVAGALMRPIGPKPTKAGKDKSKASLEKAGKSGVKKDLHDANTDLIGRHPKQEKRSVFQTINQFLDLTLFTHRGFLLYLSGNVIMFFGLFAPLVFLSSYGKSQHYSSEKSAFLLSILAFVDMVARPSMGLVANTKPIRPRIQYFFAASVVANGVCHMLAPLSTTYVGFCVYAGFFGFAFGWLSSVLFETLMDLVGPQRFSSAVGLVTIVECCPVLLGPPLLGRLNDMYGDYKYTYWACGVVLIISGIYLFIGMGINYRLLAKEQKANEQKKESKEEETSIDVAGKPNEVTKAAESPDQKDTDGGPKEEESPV
Chain of MCT1 (P35613 140-385 partner): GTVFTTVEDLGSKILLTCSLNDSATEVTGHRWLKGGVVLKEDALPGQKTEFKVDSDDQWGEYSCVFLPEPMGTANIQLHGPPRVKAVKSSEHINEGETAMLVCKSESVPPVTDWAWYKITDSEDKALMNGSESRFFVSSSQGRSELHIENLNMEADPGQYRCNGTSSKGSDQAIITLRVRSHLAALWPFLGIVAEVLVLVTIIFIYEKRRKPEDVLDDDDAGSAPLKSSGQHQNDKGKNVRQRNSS
Chain of MCT4 (O15427 whole entry, looked up): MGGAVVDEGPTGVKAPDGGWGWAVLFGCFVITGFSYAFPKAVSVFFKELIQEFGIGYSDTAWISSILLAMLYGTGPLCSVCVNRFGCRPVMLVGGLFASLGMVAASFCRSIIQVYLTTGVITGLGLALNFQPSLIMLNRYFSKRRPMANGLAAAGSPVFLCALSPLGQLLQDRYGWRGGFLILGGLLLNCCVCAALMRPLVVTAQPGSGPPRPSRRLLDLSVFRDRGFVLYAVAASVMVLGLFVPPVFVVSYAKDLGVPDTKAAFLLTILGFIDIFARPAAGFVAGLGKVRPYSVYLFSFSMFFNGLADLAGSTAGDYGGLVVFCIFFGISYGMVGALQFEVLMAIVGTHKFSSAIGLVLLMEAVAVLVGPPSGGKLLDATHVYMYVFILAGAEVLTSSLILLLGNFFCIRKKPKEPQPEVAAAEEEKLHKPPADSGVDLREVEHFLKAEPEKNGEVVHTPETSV
Chain of MCT4 (P35613 whole entry partner, looked up): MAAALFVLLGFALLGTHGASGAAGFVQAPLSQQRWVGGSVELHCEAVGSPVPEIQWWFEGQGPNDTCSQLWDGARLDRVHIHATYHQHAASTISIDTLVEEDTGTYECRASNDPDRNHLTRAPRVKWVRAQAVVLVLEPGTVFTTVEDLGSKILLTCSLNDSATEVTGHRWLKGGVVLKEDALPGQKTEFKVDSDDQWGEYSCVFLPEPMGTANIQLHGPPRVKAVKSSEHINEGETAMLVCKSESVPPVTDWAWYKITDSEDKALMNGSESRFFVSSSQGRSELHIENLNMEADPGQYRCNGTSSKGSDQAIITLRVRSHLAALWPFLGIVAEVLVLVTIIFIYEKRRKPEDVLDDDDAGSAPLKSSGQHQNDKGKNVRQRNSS

For `CC(C)(OCc1cc(-c2cccc(OC3CC3)c2)n(-c2ccccc2Br)n1)C(=O)O` [Example 182, 2-([1-(2-Bromophenyl)-5-(3-cyclopropoxy-phenyl)-1H-pyrazol-3-yl]methoxy)-2-methylpropanoic acid], the figures for the IC50 against MCT4 and against MCT1 were 5.9 nM and 12000 nM, respectively.

`CC(C)(OCc1cc(-c2cccc(OC3CC3)c2)n(-c2ccc(Cl)cc2Cl)n1)C(=O)O` [Example 184, 2-([5-(3-Cyclopropoxyphenyl)-1-(2,4-dichlorophenyl)-1H-pyrazol-3-yl]methoxy)-2-methylpropanoic acid]: the values for the IC50 against MCT4 and on MCT1 were 22 nM and > 33000 nM, respectively.

With `CC(C)(OCc1cc(-c2cccc(OC3CC3)c2)n(-c2cc(Cl)ccc2Cl)n1)C(=O)O` [Example 185, 2-([5-(3-Cyclopropoxyphenyl)-1-(2,5-dichlorophenyl)-1H-pyrazol-3-yl]methoxy)-2-methylpropanoic acid], the IC50 (as a rule, the concentration at which inhibition is half-maximal) against MCT4 came to 9.3 nM; against MCT1 it was 17000 nM.

As to `CC(C)(OCc1cc(-c2cccc(OC3CC3)c2)n(-c2ccccc2OC(F)F)n1)C(=O)O` [Example 186, 2-([5-(3-Cyclopropoxyphenyl)-1-[2-(difluoromethoxy)phenyl]-1H-pyrazol-3-yl]-methoxy)-2-methylpropanoic acid], the IC50 against MCT4 came out at 21.5 nM; at MCT1, 90000 nM.

As to `CCOc1ccccc1-n1nc(COC(C)(C)C(=O)O)cc1-c1cccc(OC2CC2)c1` [Example 187, 2-([5-(3-cyclopropoxyphenyl)-1-(2-ethoxy-phenyl)-1H-pyrazol-3-yl]methoxy)-2-methylpropanoic acid], the half-maximal inhibitory concentration (IC50) against MCT4 was determined as 43 nM; against MCT1, 63000 nM.

Take `CC(C)c1ccccc1-n1nc(COC(C)(C)C(=O)O)cc1-c1cccc(OC2CC2)c1` [Example 189, 2-([5-(3-cyclopropoxyphenyl)-1-[2-(propan-2-yl)phenyl]-1H-pyrazol-3-yl]methoxy)-2-methylpropanoic acid]: the IC50 on MCT4 was determined as 18 nM; against MCT1, 22000 nM.

As to `CC(C)(OCc1cc(-c2cccc(OC3CC3)c2)n(-c2ccccc2C(F)(F)F)n1)C(=O)O` [Example 190, 2-([5-(3-Cyclopropoxyphenyl)-1-[2-(trifluoromethyl)phenyl]-1H-pyrazol-3-yl]-methoxy)-2-methylpropanoic acid], the 50% inhibitory concentration (IC50) was determined as 7.8 nM against MCT4 and 31000 nM on MCT1.

On to `CCn1ncc2cccc(-n3nc(COC(C)(C)C(=O)O)cc3-c3cccc(OC4CC4)c3)c21` [Example 193, 2-([5-(3-Cyclopropoxyphenyl)-1-(1-ethyl-1H-indazol-7-yl)-1H-pyrazol-3-yl]-methoxy)-2-methylpropanoic acid], for which the IC50 was determined as 18 nM on MCT4 and 38000 nM against MCT1.

As to `Cn1cnc2cccc(-n3nc(COC(C)(C)C(=O)O)cc3-c3cccc(OC4CC4)c3)c21` [Example 194, 2-([5-(3-Cyclopropoxyphenyl)-1-(1-methyl-1H-1,3-benzodiazol-7-yl)-1H-pyrazol-3-yl]-methoxy)-2-methylpropanoic acid], the IC50 at MCT4 was 3500 nM; against MCT1 it was > 100000 nM.

In the case of `CC(C)(OCc1cc(-c2cc3ccccc3s2)n(Cc2ccccc2Cl)n1)C(=O)O` [Example 195], the 50% inhibitory concentration (IC50) against MCT4 amounted to 5.3 nM; at MCT1, 13000 nM.

Regarding `CCOc1cccc(-c2cc(COC(C)(C)C(=O)O)nn2Cc2ccccc2OCC)c1` [Example 199, 2-([5-(3-Ethoxyphenyl)-1-[(2-ethoxy-phenyl)methyl]-1H-pyrazol-3-yl]methoxy)-2-methylpropanoic acid], the concentration for half-maximal inhibition (IC50) was 9.6 nM against MCT4 and 34000 nM against MCT1.

Take `CCOc1cc(OC)cc(-c2cc(COC(C)(C)C(=O)O)nn2Cc2ccccc2OCC)c1` [Example 200, 2-([5-(3-Ethoxy-5-methoxyphenyl)-1-[(2-ethoxyphenyl)methyl]-1H-pyrazol-3-yl]-methoxy)-2-methylpropanoic acid]: the IC50 at MCT4 stood at 1.9 nM; on MCT1 it was 17000 nM.

In the case of `CC(C)(OCc1cc(-c2ccc3c(c2)OCCO3)n(Cc2ccccc2Cl)n1)C(=O)O` [Example 203, 2-([1-[(2-Chlorophenyl)methyl]-5-(2,3-dihydro-1,4-benzodioxin-6-yl)-1H-pyrazol-3-yl]methoxy)-2-methylpropanoic acid], the IC50 on MCT4 was 185 nM; against MCT1, 93000 nM.

As to `CC(C)(OCc1cc(-c2ccc3c(c2)OCO3)n(Cc2ccccc2Cl)n1)C(=O)O` [Example 204, [[5-(2H-1,3-Benzodioxol-5-yl)-1-[(2-chloro-phenyl)methyl]-1H-pyrazol-3-yl]methoxy)-2-methylpropanoic acid], the IC50 was 40 nM against MCT4 and > 100000 nM on MCT1.

For `Cn1cc(-c2cc(COC(C)(C)C(=O)O)nn2Cc2ccccc2Cl)cn1` [Example 205, 2-([1-[(2-Chlorophenyl)methyl]-5-(1-methyl-1H-pyrazol-4-yl)-1H-pyrazol-3-yl]-methoxy)-2-methylpropanoic acid], the half-maximal inhibitory concentration (IC50) was 890 nM on MCT4 and > 100000 nM against MCT1.

As to `CCOc1ccccc1Cn1nc(COC(C)(C)C(=O)O)cc1-c1ccc2cnn(C)c2c1` [Example 207, 2-([1-[(2-Ethoxyphenyl)methyl]-5-(1-methyl-1H-indazol-6-yl)-lH-pyrazol-3-yl]-methoxy)-2-methylpropanoic acid], the IC50 against MCT4 stood at 15 nM; against MCT1 it was 3200 nM.

For the compound `CCOc1cc(OCC)cc(-c2cc(COC(C)(C)C(=O)O)nn2Cc2ccccc2OCC)c1` [Example 208, 2-([5-(3,5-Diethoxyphenyl)-1-[(2-ethoxy-phenyl)methyl]-1H-pyrazol-3-yl]methoxy)-2-methylpropanoic acid], the IC50 is 7.5 nM at MCT4 and 17000 nM on MCT1.

Turning to `Cn1ncc2cc(-c3cc(COC(C)(C)C(=O)O)nn3Cc3ccccc3Cl)ccc21` [Example 209, 2-([1-[(2-Chlorophenyl)methyl]-5-(1-methyl-1H-indazol-5-yl)-1H-pyrazol-3-yl]-methoxy)-2-methyl propanoic acid], the figures for the IC50 at MCT4 and at MCT1 were 31 nM and 95000 nM, respectively.

For `CCOc1ccccc1Cn1nc(COC(C)(C)C(=O)O)cc1-c1cccc(OC2CCC2)c1` [Example 210, 2-([5-(3-cyclobutoxyphenyl)-1-[(2-ethoxy-phenyl)methyl]-1H-pyrazol-3-yl]methoxy)-2-methylpropanoic acid], the IC50 is 2.4 nM at MCT4 and 7300 nM against MCT1.

With `COc1cc(OC)cc(-c2cc(COC(C)(C)C(=O)O)nn2CCc2ccccc2)c1` [Example 212, 2-([5-(3,5-Dimethoxyphenyl)-1-(2-phenyl-ethyl)-1H-pyrazol-3-yl]methoxy)-2-methylpropanoic acid], the figures for the half-inhibitory concentration (IC50) on MCT4 and at MCT1 were 195 nM and > 100000 nM, respectively.

For the compound `CCOc1cc(OCC)cc(-c2cc(COC(C)(C)C(=O)O)nn2Cc2ccccc2Cl)c1` [Example 213, 2-([1-[(2-Chlorophenyl)methyl]-5-(3,5-diethoxyphenyl)-1H-pyrazol-3-yl]methoxy)-2-methylpropanoic acid], the IC50 on MCT4 was determined as 12 nM; against MCT1 it was 12000 nM.

`CN(C)c1ccccc1Cn1nc(COC(C)(C)C(=O)O)cc1-c1cccc(OC2CC2)c1` [Example 214, 2-([5-(3-Cyclopropoxyphenyl)-1-[[2-(dimethylamino)phenyl)methyl]-1H-pyrazol-3-yl]methoxy)-2-methylpropanoic acid]: the IC50 worked out at 6 nM on MCT4 and 94000 nM against MCT1.

`COc1cccc(-c2cc(COC(C)(C)C(=O)O)nn2-c2ccccc2OC(C)C)c1` [Example 215, 2-([5-(3-Methoxyphenyl)-1-[2-(propan-2-yloxy)phenyl]-l//-pyrazol-3-yl]mcthoxy)-2-methylpropanoic acid]: the values for the IC50 against MCT4 and at MCT1 were 360 nM and > 100000 nM, respectively.

As to `CC[C@@](C)(OCc1cc(-c2cccc(OC3CC3)c2)n(-c2cccc3cnn(C)c23)n1)C(=O)O` [Example 217, (2R)-2-([5-(3-cyclopropoxyphenyl)-1-(1-methyl-1H-indazol-7-yl)-1H-pyrazol-3-yl]methoxy)-2-methylbutanoic acid], the concentration for half-maximal inhibition (IC50) came out at 8.7 nM against MCT4 and 18000 nM on MCT1.

Regarding `CC[C@](C)(OCc1cc(-c2cccc(OC)c2)n(Cc2ccccc2Cl)n1)C(=O)O` [Example 218, (2S)-2-([1-[(2-chlorophenyl)methyl]-5-(3-methoxyphenyl)-1H-pyrazol-3-yl]methoxy)-2-methylbutanoic acid], the IC50 at MCT4 came to 7.5 nM; against MCT1 it was 22000 nM.

Regarding `CC[C@@](C)(OCc1cc(-c2cccc(OC)c2)n(Cc2ccccc2Cl)n1)C(=O)O` [Example 219, (2R)-2-([1-[(2-chlorophenyl)methyl]-5-(3-methoxyphenyl)-1H-pyrazol-3-yl]methoxy)-2-methylbutanoic acid], the IC50 against MCT4 came out at 4 nM; against MCT1, 14000 nM.

`CC[C@@](C)(OCc1cc(-c2cccc(OCC(C)(C)C)c2)n(-c2cccc3cnn(C)c23)n1)C(=O)O` [Example 223, (2R)-2-([5-[3-(2,2-Dimethyl-propoxy)phenyl]-1-(1-methyl-1H-indazol-7-yl)-1H-pyrazol-3-yl]methoxy)-2-methyl-butanoic acid]: the IC50 at MCT4 worked out at 0.3 nM; on MCT1 it was 21000 nM.

For `CC(C)Oc1ncc(-c2cc(COC(C)(C)C(=O)O)nn2Cc2ccccc2Cl)o1` [Example 227, 2-([1-[(2-Chlorophenyl)methyl]-5-[2-(propan-2-yloxy)-1,3-oxazol-5-yl]-1H-pyrazol-3-yl)methoxy)-2-methylpropanoic acid], the half-maximal inhibitory concentration (IC50) stood at 690 nM on MCT4 and 37000 nM on MCT1.
